# Patent publication EP3807270B1, “NOVEL HETEROARYL HETEROCYCLYL COMPOUNDS FOR THE TREATMENT OF AUTOIMMUNE DISEASE” (F. Hoffmann-La Roche AG, priority 2018, dated 2019)
# Target: T1, hTLR9 (Homo sapiens, UniProt Q9NR96)
# T1 sequence (Q9NR96 26-1032): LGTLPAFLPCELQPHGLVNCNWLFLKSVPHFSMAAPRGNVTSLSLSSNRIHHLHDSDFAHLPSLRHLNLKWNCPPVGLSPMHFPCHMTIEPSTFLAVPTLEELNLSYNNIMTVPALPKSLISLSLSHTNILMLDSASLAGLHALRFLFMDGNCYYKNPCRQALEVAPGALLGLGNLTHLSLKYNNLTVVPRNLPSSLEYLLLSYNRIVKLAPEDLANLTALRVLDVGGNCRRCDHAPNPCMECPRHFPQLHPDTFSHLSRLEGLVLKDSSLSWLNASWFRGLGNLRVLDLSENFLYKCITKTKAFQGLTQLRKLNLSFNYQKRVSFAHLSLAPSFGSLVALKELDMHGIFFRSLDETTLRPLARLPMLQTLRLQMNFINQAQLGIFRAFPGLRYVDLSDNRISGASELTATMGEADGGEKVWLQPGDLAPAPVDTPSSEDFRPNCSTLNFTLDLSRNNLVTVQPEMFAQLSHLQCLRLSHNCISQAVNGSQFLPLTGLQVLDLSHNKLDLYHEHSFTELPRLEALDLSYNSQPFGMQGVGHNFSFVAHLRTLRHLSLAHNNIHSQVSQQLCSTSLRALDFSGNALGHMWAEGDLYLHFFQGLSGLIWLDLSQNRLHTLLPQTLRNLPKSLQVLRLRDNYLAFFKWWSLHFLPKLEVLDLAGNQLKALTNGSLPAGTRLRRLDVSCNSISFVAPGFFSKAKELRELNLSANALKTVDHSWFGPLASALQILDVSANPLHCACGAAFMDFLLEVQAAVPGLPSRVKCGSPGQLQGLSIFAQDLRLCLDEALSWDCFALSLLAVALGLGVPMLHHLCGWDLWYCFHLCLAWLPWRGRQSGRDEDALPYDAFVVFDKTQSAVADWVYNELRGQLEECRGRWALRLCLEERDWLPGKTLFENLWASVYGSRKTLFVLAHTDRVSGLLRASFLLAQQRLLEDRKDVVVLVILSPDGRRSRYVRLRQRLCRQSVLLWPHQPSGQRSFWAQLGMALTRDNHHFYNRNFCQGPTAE
# Assay: HEK293-Blue-hTLR-9 cells assay (SEAP reporter, ODN2006 stimulation)
# Assay type: cell-based
# Design: host or cells: HEK293 (HEK-Blue)
# Conditions: HEK293-Blue-hTLR9 cells, ODN2006, 20 hrs; read-out: HEK/hTLR9 IC50
# Excerpt: A stable HEK293-Blue-hTLR-9 cell line was purchased from InvivoGen (Cat.#: hkb-htlr9, San Diego, California, USA). These cells were originally designed for studying the stimulation of human TLR9 by monitoring the activation of NF-κB. A SEAP (secreted embryonic alkaline phosphatase) reporter gene was placed under the control of the IFN-β minimal promoter fused to five NF-κB and AP-1-binding sites. The SEAP was induced by activating NF-κB and AP-1 via stimulating HEK-Blue hTLR9 cells with TLR9 ligands. Therefore, the reporter expression was declined by TLR9 antagonist under the stimulation of a ligand, such as ODN2006 (Cat.#: tlrl-2006-1, Invivogen, San Diego, California, USA), for incubation of 20 hrs. The cell culture supernatant SEAP reporter activity was determined using QUANTI-Blue™ kit (Cat.#: rep-qb 1, Invivogen, San Diego, California, USA) at a wavelength of 640 nm, a detection medium that turns purple or blue in the presence of alkaline phosphatase.
# HEK293-Blue-hTLR9 cells were incubated at a density of 250,000-450,000 cells/mL in a volume of 170 µL in a 96-well plate in Dulbecco's Modified Eagle's medium (DMEM) containing 4.5 g/L glucose, 50 U/mL penicillin, […], […], 2 mM L-glutamine, 10% (v/v) heat-inactivated fetal bovine serum with addition of 20 µL test compound in a serial dilution in the presence of final DMSO at 1% and 10 µL of 20uM ODN2006 in above DMEM, perform incubation under 37 °C in a CO2 incubator for 20 hrs. Then 20 µL of the supernatant from each well was incubated with 180 µL Quanti-blue substrate solution at 37 °C for 2 hrs and the absorbance was read at 620-655 nm using a spectrophotometer. The signaling pathway that TLR9 activation leads to downstream NF-κB activation has been widely accepted, and therefore similar reporter assay was modified for evaluating TLR9 antagonist.
row,SMILES,IC50 [nM]
1,"C[C@@H]1CN(c2ccc(C#N)n3ncc(F)c23)C[C@H](CN2CCN(c3cnc4c(c3)CNC4)CC2)O1 [Example 26, 4-[(2S,6R)-2-[[4-(6,7-dihydro-5H-pyrrolo[3,4-b]pyridin-3-yl)piperazin-1-yl]methyl]-6-methyl-morpholin-4-yl]-3-fluoro-pyrazolo[1,5-a]pyridine-7-carbonitrile]",119
2,"C[C@@H]1CN(c2ccc(C#N)c3ncccc23)C[C@H](CN2CCN(c3ccc4c(c3)CNC4)CC2CO)O1 (stereo partly drawn) [Example 15, 5-[(2S,6R)-2-[[2-(hydroxymethyl)-4-isoindolin-5-yl-piperazin-1-yl]methyl]-6-methyl-morpholin-4-yl]quinoline-8-carbonitrile]",97
3,"C[C@@H]1CN(c2ccc(C#N)c3ncccc23)C[C@H](CN2CCC(Nc3ccc4c(c3)CNC4)C2)O1 (stereo partly drawn) [Example 38, 5-[(2S,6R)-2-[[3-(isoindolin-5-ylamino)pyrrolidin-1-yl]methyl]-6-methyl-morpholin-4-yl]quinoline-8-carbonitrile]",34
4,"C[C@@H]1CN(c2ccc(C#N)c3ncccc23)C[C@H](CN2CCN(c3ccc4c(n3)CCNC4)C[C@@H](O)C2)O1 (single isomer, unassigned) [Example 35B]",117
5,"C[C@@H]1CN(c2ccc(C#N)c3ncccc23)C[C@H](CN2CCN(c3ncc4c(n3)CNCC4)CC2)O1 [Example 12, 5-[(2R,6S)-2-methyl-6-[[4-(5,6,7,8-tetrahydropyrido[3,4-d]pyrimidin-2-yl)piperazin-1-yl]methyl]morpholin-4-yl]quinoline-8-carbonitrile]",143
6,"C[C@@H]1CN(c2ccc(C#N)c3ncccc23)C[C@H](CN2CCN(c3nc4c(s3)CNCC4)CC2)O1 [Example 31, 5-[(2R,6S)-2-methyl-6-[[4-(4,5,6,7-tetrahydrothiazolo[5,4-c]pyridin-2-yl)piperazin-1-yl]methyl]morpholin-4-yl]quinoline-8-carbonitrile]",140
7,"C[C@@H]1CN(c2ccc(C#N)c3ncccc23)C[C@H](CN2CCN(c3ccc4c(c3)CNC4)[C@@H](CO)C2)O1 [Example 4, 5-[(2S,6R)-2-[[(3R)-3-(hydroxymethyl)-4-isoindolin-5-yl-piperazin-1-yl]methyl]-6-methyl-morpholin-4-yl]quinoline-8-carbonitrile]",148
8,"C[C@@H]1CN(c2ccc(C#N)c3ncccc23)C[C@H](CN2CCN(c3ccc4c(n3)CCNC4)C[C@H](O)C2)O1 (single isomer, unassigned) [Example 35A]",147
9,"C[C@@H]1CN(c2ccc(C#N)c3ncccc23)C[C@H](CN2CCN(c3ccc4c(c3)CNC4)C(CO)C2)O1 (stereo partly drawn) [Example 13, 5-[(2S,6R)-2-[[3-(hydroxymethyl)-4-isoindolin-5-yl-piperazin-1-yl]methyl]-6-methyl-morpholin-4-yl]quinoline-8-carbonitrile]",109
10,"CC1NCc2cc(N3CCN(C[C@H]4CN(c5ccc(C#N)c6ncccc56)C[C@@H](C)O4)CC3)ccc21 (stereo partly drawn) [Example 28, 5-[(2R,6S)-2-methyl-6-[[4-(1-methylisoindolin-5-yl)piperazin-1-yl]methyl]morpholin-4-yl]quinoline-8-carbonitrile]",52
11,"C[C@@H]1CN(c2ccc(C#N)c3ncccc23)C[C@H](CNC2CN(c3cnc4c(c3)CNC4)C2)O1 [Example 43, 5-[(2S,6R)-2-[[[1-(6,7-dihydro-5H-pyrrolo[3,4-b]pyridin-3-yl)azetidin-3-yl]amino]methyl]-6-methyl-morpholin-4-yl]quinoline-8-carbonitrile]",111

# Next, values leading:
row,IC50 [nM],SMILES
1,112,"C[C@@H]1CN(c2ccc(C#N)c3ncccc23)C[C@H](CN2CCN(c3ccc4c(n3)[C@H](C)NC4)CC2)O1 (single isomer, unassigned) [Example 66]"
2,115,"C[C@@H]1Cc2cnc(N3CCN(C[C@H]4CN(c5ccc(C#N)c6ncccc56)C[C@@H](C)O4)CC3)cc2CN1 (single isomer, unassigned) [Example 77]"
3,87,"C[C@@H]1CN(c2ccc(C#N)c3nccnc23)C[C@H](CN2CCN(c3cc4c(cn3)[C@H](C)NCC4)CC2)O1 (single isomer, unassigned) [Example 85]"
4,134,"C[C@@H]1CN(c2ccc(C#N)c3ncccc23)C[C@H](CN2CC3(C2)CN(c2ncc4c(n2)CCNC4)CCO3)O1 [Example 51, 5-[(2R,6S)-2-methyl-6-[[8-(5,6,7,8-tetrahydropyrido[4,3-d]pyrimidin-2-yl)-5-oxa-2,8-diazaspiro[3.5]nonan-2-yl]methyl]morpholin-4-yl]quinoline-8-carbonitrile]"
5,133,"C[C@@H]1CN(c2ccc(C#N)c3ncccc23)C[C@H](CN2CCN(c3ccc4c(c3)C(O)CN(C)C4)CC2)O1 (stereo partly drawn) [Example 59, 5-[(2S,6R)-2-[[4-(4-hydroxy-2-methyl-3,4-dihydro-1H-isoquinolin-6-yl)piperazin-1-yl]methyl]-6-methyl-morpholin-4-yl]quinoline-8-carbonitrile]"
6,81,"C[C@@H]1CN(c2ccc(C#N)c3ncccc23)C[C@H](CN2CCN(c3ccc4c(n3)[C@@H](C)NC4)CC2)O1 (single isomer, unassigned) [Example 65]"
7,192,"C[C@@H]1Cc2cnc(N3CCN(C[C@H]4CN(c5ccc(C#N)c6nccnc56)C[C@@H](C)O4)CC3)cc2CN1 (single isomer, unassigned) [Example 82]"
8,< 32,"C[C@@H]1CN(c2ccc(C#N)c3ncccc23)C[C@H](CN2C[C@H]3CN(c4ccc5c(n4)CCNC5)CC[C@@H]32)O1 (single isomer, unassigned) [Example 54]"
9,6620,"COc1ccc(N2CCN(C[C@H]3CN(c4ccc(C#N)c5ncccc45)C[C@@H](C)O3)CC2)cc1 [Example R1, 5-[(2S,6R)-2-[[4-(4-methoxyphenyl)piperazin-1-yl]methyl]-6-methyl-morpholin-4-yl]quinoline-8-carbonitrile, reference compound]"
10,229,"C[C@@H]1CN(c2ccc(C#N)c3ncccc23)C[C@H](CN2CCN(c3ncnc4c3CNCC4)CC2)O1 [Example 61, 5-[(2R,6S)-2-methyl-6-[[4-(5,6,7,8-tetrahydropyrido[4,3-d]pyrimidin-4-yl)piperazin-1-yl]methyl]morpholin-4-yl]quinoline-8-carbonitrile]"
11,68,"C[C@@H]1CN(c2ccc(C#N)c3ncccc23)C[C@H](CN2CCN(c3cc4c(cn3)CCN[C@H]4C)CC2)O1 (single isomer, unassigned) [Example 75]"
12,143,"C[C@@H]1CN(c2ccc(C#N)c3ncccc23)C[C@H](CN2CCN(c3cnc4c(c3)CN[C@H]4C)CC2)O1 (single isomer, unassigned) [Example 67]"
13,151,"C[C@@H]1CN(c2ccc(C#N)c3ncccc23)C[C@H](CN2CCN(c3nccc4c3CCNC4)CC2)O1 [Example 62, 5-[(2R,6S)-2-methyl-6-[[4-(5,6,7,8-tetrahydro-2,6-naphthyridin-1-yl)piperazin-1-yl]methyl]morpholin-4-yl]quinoline-8-carbonitrile]"
14,92,"C[C@@H]1CN(c2ccc(C#N)c3ncccc23)C[C@H](CN2CCN(c3ccc4c(n3)CN[C@@H]4C)CC2)O1 (single isomer, unassigned) [Example 64]"
15,67,"C[C@@H]1CN(c2ccc(C#N)c3ncccc23)C[C@H](CN2CCN(c3ccc4c(n3)CN[C@H]4C)CC2)O1 (single isomer, unassigned) [Example 63]"
